Common to all, as to type: in vivo
Assay [1] has as its system Botrytis cinerea. As to the kind of experiment: Treatment of wounded sweet peppers inoculated with Botrytis cinerea (Examples 9, 10). Conditions: 20° C., 400 ppm natamycin. As for the experimental part:
Ten fresh, organic sweet peppers were used per treatment. Each sweet pepper was soaked in a 180 ppm hypochlorite solution for 10 minutes, then rinsed thoroughly with fresh tap water and dried. The peel of each disinfected sweet pepper was wounded once using a cork borer according to the method described by de Lapeyre de Bellaire and Dubois (1987). Subsequently, each wound was inoculated with 10 μl of a Botrytis cinerea suspension containing 1×10^5 of spores/ml. After incubation for 3 hours at 20° C., each wound and the skin area of 0.5 cm around the wound was treated with in total 75 μl of a freshly prepared aqueous antifungal composition comprising either 400 ppm natamycin (DSM Food Specialties, Delft, The Netherlands), 600 ppm fenhexamid or both. Each antifungal composition also comprised 3.2% (w/w) beeswax, 0.8% (w/w) glycerol, 0.7% (w/w) polyoxyethylene sorbitan monostearate (Tween 60), 0.2% (w/w) polyoxyethylene sorbitan monooleate (Tween 80), 0.05% (w/w) methylhydroxyethyl-cellulose (MHEC), 0.03% (w/w) anti-foaming agent, 0.02% (w/w) xanthan gum, 0.02% (w/w) citric acid, 0.01% (w/w) lactic acid and 0.01% potassium sorbate. A composition without natamycin or fenhexamid was used as control.
The treated sweet peppers were incubated in a closed box in the dark at 20° C. and assessed on mould growth during a 26-day incubation period. The antifungal activity (in %) of the individual and combined active ingredients was determined by calculating the reduction in mould growth observed on the sweet peppers treated with the antifungal composition in comparison to the mould growth on the sweet peppers treated with the control composition according to the Colby method (Colby, 1967) described in Example 5.
The experiment was conducted as described in Example 9, except for the fact that each wounded and inoculated sweet pepper was treated with 75 μl of a freshly prepared aqueous antifungal composition comprising either 400 ppm natamycin (DSM Food Specialties, Delft, The Netherlands), 800 ppm carboxin or both. The treated sweet peppers were incubated in a closed box in the dark at 20° C. and assessed on mould growth during a 26-day incubation period. During incubation, the treated sweet peppers were assessed on mould growth according to the method described in Example 9.

The test system of assay [2] is Botrytis cinerea. Put plainly: Treatment of wounded strawberries inoculated with Botrytis cinerea (Examples 5, 6). Conditions: for Observed antifungal activity O (%): strawberries, 20° C. Here is the method: Twelve fresh, organic strawberries were used per treatment. Each strawberry was wounded with a 0.5 mm long cut and each wound was inoculated with 10 μl of a Botrytis cinerea suspension containing 1×10^5 of spores/ml. After a 3-hour incubation period at 20° C., each strawberry was dipped individually for 1 minute in a freshly prepared aqueous antifungal composition comprising either 500 ppm natamycin (DSM Food Specialties, Delft, The Netherlands), 500 ppm fenhexamid or both. Each antifungal composition also comprised 3.2% (w/w) beeswax, 0.8% (w/w) glycerol, 0.7% (w/w) polyoxyethylene sorbitan monostearate (Tween 60), 0.1% (w/w) polyoxyethylene sorbitan monooleate (Tween 80), 0.05% (w/w) methylhydroxyethyl-cellulose (MHEC), 0.03% (w/w) anti-foaming agent, 0.02% (w/w) xanthan gum, 0.02% (w/w) citric acid, 0.01% (w/w) lactic acid and 0.01% potassium sorbate. A composition without natamycin or fenhexamid was used as control. […] The treated strawberries were incubated in a closed box in the dark at 20° C. for 11 days.
The expected antifungal activity (E in %) of the combined antifungal composition comprising both active ingredients was calculated according to the Colby equation (Colby, 1967): […]
wherein X and Y are the observed antifungal activities (in %) of the individual active ingredients X and Y, respectively.
The experiment was conducted as described in Example 5, except for the fact that each wounded and inoculated strawberry was dipped individually for 1 minute in a freshly prepared aqueous antifungal composition comprising either 250 ppm natamycin (DSM Food Specialties, Delft, The Netherlands), 250 ppm fenhexamid or both. The treated strawberries were incubated in a closed box in the dark at 20° C. for 10 days. During incubation, the treated strawberries were assessed on mould growth according to the two methods described in Example 5.

Another assay has as its system Penicillium italicum. Put plainly: Treatment of wounded oranges inoculated with Penicillium italicum (Examples 7, 8). Conditions: 20° C. As for the experimental part: Ten fresh, organic oranges were used per treatment. Each orange was soaked in a 180 ppm hypochlorite solution for 10 minutes, then rinsed thoroughly with fresh tap water and dried. The peel of each disinfected orange was wounded once using a cork borer according to the method described by de Lapeyre de Bellaire and Dubois (1987). Subsequently, each wound was inoculated with 10 μl of a Penicillium italicum suspension containing 1×10^5 of spores/ml. After incubation for 3 hours at 20° C., each wound and the orange peel area of 1 cm around the wound was treated with in total 150 μl of a freshly prepared aqueous antifungal composition comprising either 500 ppm natamycin (DSM Food Specialties, Delft, The Netherlands), 800 ppm boscalid or both. Each antifungal composition also comprised 3.2% (w/w) beeswax, 0.8% (w/w) glycerol, 0.7% (w/w) polyoxyethylene sorbitan monostearate (Tween 60), 0.2% (w/w) polyoxyethylene sorbitan monooleate (Tween 80), 0.05% (w/w) methylhydroxyethyl-cellulose (MHEC), 0.03% (w/w) anti-foaming agent, 0.02% (w/w) xanthan gum, 0.02% (w/w) citric acid, 0.01% (w/w) lactic acid and 0.01% potassium sorbate. A composition without natamycin or boscalid was used as control. […] The treated oranges were incubated in a closed box in the dark at 20° C. and assessed on mould growth during a 17-day incubation period. The antifungal activity (in %) of the individual and combined active ingredients was determined by calculating the reduction in mould growth observed on the oranges treated with the antifungal composition in comparison to the mould growth on the oranges treated with the control composition according to the Colby method (Colby, 1967) described in Example 5.
The experiment was conducted as described in Example 7, except for the fact that each wounded and inoculated orange was treated with 150 μl of a freshly prepared aqueous antifungal composition comprising either 250 ppm natamycin (DSM Food Specialties, Delft, The Netherlands), 400 ppm boscalid or both. The treated oranges were incubated in a closed box in the dark at 20° C. and assessed on mould growth during a 18-day incubation period. During incubation, the treated oranges were assessed on mould growth according to the method described in Example 7.

As to `CC1=C(C(=O)Nc2ccccc2)SCCO1` [Carboxin, carboxin], the “Observed antifungal activity O (%)” value is on record as 67% in the assay on Botrytis cinerea [1] (17-19 days, 800 ppm carboxin or both); 55% in the assay on Botrytis cinerea [1] (20-21 days, 800 ppm carboxin or both); 45% with Botrytis cinerea [1] (22 days, 800 ppm carboxin or both); 42% with Botrytis cinerea [1] (24 days, 800 ppm carboxin or both); 41% with Botrytis cinerea [1] (25 days, 800 ppm carboxin or both); 38% with Botrytis cinerea [1] (26 days, 800 ppm carboxin or both).

Consider `CC1(C(=O)Nc2ccc(O)c(Cl)c2Cl)CCCCC1` [Fenhexamid, fenhexamid], for which the “Number of moulded strawberries/total number of 12 strawberries” value in the assay on Botrytis cinerea [2] (Day 5, 20° C., 250 ppm natamycin, 250 ppm fenhexamid or both) is given as 11/12; with Botrytis cinerea [2] (Day 5, 20° C., 250 ppm natamycin, 250 ppm fenhexamid or both, listed as fenhexamid), 11; with Botrytis cinerea [2] (Day 6, 20° C., 500 ppm natamycin, 500 ppm fenhexamid or both), 12/12; with Botrytis cinerea [2] (Day 6-7, 20° C., 250 ppm natamycin, 250 ppm fenhexamid or both) it was 11/12; with Botrytis cinerea [2] (Day 6-7, 20° C., 250 ppm natamycin, 250 ppm fenhexamid or both, listed as fenhexamid), 11; in the assay with Botrytis cinerea [2] (Day 7-8, 20° C., 500 ppm natamycin, 500 ppm fenhexamid or both), 12/12. Besides, the “Number of moulded strawberries/total number of 12 strawberries” value in the assay with Botrytis cinerea [2] (Day 8, 20° C., 250 ppm natamycin, 250 ppm fenhexamid or both) is listed as 12/12; in the assay on Botrytis cinerea [2] (Day 8, 20° C., 250 ppm natamycin, 250 ppm fenhexamid or both, listed as fenhexamid), 12; in the assay with Botrytis cinerea [2] (Day 9, 20° C., 500 ppm natamycin, 500 ppm fenhexamid or both), 12/12. For the same compound, in the assay with Botrytis cinerea [2] (after 6 through 9 days of incubation, 500 ppm natamycin alone or 500 ppm fenhexamid alone), the “Number of moulded strawberries of 12” value was found to be 12. The “Observed antifungal activity O (%)” value is listed as 22% in the assay on Botrytis cinerea [2] (4 days, 500 ppm natamycin, 500 ppm fenhexamid or both); 25% in the assay on Botrytis cinerea [2] (5 days, 500 ppm natamycin, 500 ppm fenhexamid or both); 0% in the assay with Botrytis cinerea [2] (6 days, 500 ppm natamycin, 500 ppm fenhexamid or both); 0% in the assay on Botrytis cinerea [2] (7 days, 500 ppm natamycin, 500 ppm fenhexamid or both); 7.5% with Botrytis cinerea [2] (8 days, 250 ppm natamycin, 250 ppm fenhexamid or both); 0% with Botrytis cinerea [2] (8 days, 500 ppm natamycin, 500 ppm fenhexamid or both). The “Observed antifungal activity O (%)” value stood at 0% with Botrytis cinerea [2] (9 days, 250 ppm natamycin, 250 ppm fenhexamid or both); 0% in the assay on Botrytis cinerea [2] (9 days, 500 ppm natamycin, 500 ppm fenhexamid or both); 0% in the assay with Botrytis cinerea [2] (10 days, 250 ppm natamycin, 250 ppm fenhexamid or both); 0% in the assay on Botrytis cinerea [2] (10 days, 500 ppm natamycin, 500 ppm fenhexamid or both); 0% in the assay on Botrytis cinerea [2] (11 days, 500 ppm natamycin, 500 ppm fenhexamid or both); 0% in the assay with Botrytis cinerea [1] (13-17 days, 600 ppm fenhexamid or both). The “Observed antifungal activity O (%)” value with Botrytis cinerea [1] (18-22 days, 600 ppm fenhexamid or both) is given as 0%; in the assay with Botrytis cinerea [1] (6 days, 600 ppm fenhexamid or both), 0%; in the assay with Botrytis cinerea [1] (8 days, 600 ppm fenhexamid or both) it was 0%; with Botrytis cinerea [1] (10 days, 600 ppm fenhexamid or both), 00%; with Botrytis cinerea [1] (11 days, 600 ppm fenhexamid or both), 0%; in the assay on Botrytis cinerea [1] (24 days, 600 ppm fenhexamid or both) it was 0%. The “Observed antifungal activity O (%)” value worked out at 0% with Botrytis cinerea [1] (25 days, 600 ppm fenhexamid or both) and 0% in the assay with Botrytis cinerea [1] (26 days, 600 ppm fenhexamid or both).

On to `O=C(Nc1ccccc1-c1ccc(Cl)cc1)c1cccnc1Cl` [Boscalid, boscalid], for which the “Observed antifungal activity O (%)” value in the assay on Penicillium italicum (7 days, 500 ppm natamycin, 800 ppm boscalid or both) was determined as 54%; in the assay with Penicillium italicum (8 days, 500 ppm natamycin, 800 ppm boscalid or both), 40%; with Penicillium italicum (9 days, 500 ppm natamycin, 800 ppm boscalid or both), 39%; with Penicillium italicum (10 days, 500 ppm natamycin, 800 ppm boscalid or both), 29%; in the assay with Penicillium italicum (11 days, 250 ppm natamycin, 400 ppm boscalid or both), 35%; with Penicillium italicum (11 days, 500 ppm natamycin, 800 ppm boscalid or both), 35%. In addition, the “Observed antifungal activity O (%)” value in the assay with Penicillium italicum (12 days, 250 ppm natamycin, 400 ppm boscalid or both) is 22%; in the assay with Penicillium italicum (12 days, 500 ppm natamycin, 800 ppm boscalid or both), 18%; in the assay with Penicillium italicum (13 days, 250 ppm natamycin, 400 ppm boscalid or both), 24%; with Penicillium italicum (13 days, 500 ppm natamycin, 800 ppm boscalid or both), 20%; in the assay with Penicillium italicum (14 days, 250 ppm natamycin, 400 ppm boscalid or both), 15%; with Penicillium italicum (14 days, 500 ppm natamycin, 800 ppm boscalid or both), 8%. Besides, the “Observed antifungal activity O (%)” value came to 10% in the assay with Penicillium italicum (15 days, 250 ppm natamycin, 400 ppm boscalid or both); 8% in the assay on Penicillium italicum (15 days, 500 ppm natamycin, 800 ppm boscalid or both); 6% in the assay on Penicillium italicum (17 days, 250 ppm natamycin, 400 ppm boscalid or both); 0% in the assay with Penicillium italicum (17 days, 500 ppm natamycin, 800 ppm boscalid or both); 1% in the assay on Penicillium italicum (18 days, 250 ppm natamycin, 400 ppm boscalid or both).

Source of the values: US20150157021A1, “NEW ANTIFUNGAL COMPOSITIONS” (DSM IP ASSETS B.V., priority 2012, published 2015).
